Test results reported in ChEMBL document CHEMBL5244273, “Tuberculosis: An Overview of the Immunogenic Response, Disease Progression, and Medicinal Chemistry Efforts in the Last Decade toward the Development of Potential Drugs for Extensively Drug-Resistant Tuberculosis Strains” (J Med Chem, 2021).
Converted amounts (≈) assume the structure as drawn.

How the values were obtained:
[1] = system: J774; assay: Cytotoxicity against mouse J774 cells incubated for 24 hrs by MTT assay; type: toxicity, cell-based; details: j774, 24 h
[2] = system: Mycobacterium tuberculosis; assay: Antimycobacterial activity against non replicating Mycobacterium tuberculosis by broth dilution method; type: functional
[3] = system: Mycobacterium tuberculosis; assay: Antimycobacterial activity against Mycobacterium tuberculosis H37Rv ATCC 27294 by broth dilution method; type: functional
[4] = Selectivity index, ratio of GI50 for cytotoxicity against HUVEC cells to MIC for antitubercular activity against dormant stage of Mycobacterium tuberculosis H37Ra; type: toxicity, cell-based; details: human, read-out: Selectivity Index
[5] = Selectivity index, ratio of GI50 for cytotoxicity against human HeLa cells to MIC for antitubercular activity against active stage of Mycobacterium tuberculosis H37Ra; type: toxicity, cell-based; details: read-out: Selectivity Index
[6] = Selectivity index, ratio of GI50 for cytotoxicity against HUVEC cells to MIC for antitubercular activity against active stage of Mycobacterium tuberculosis H37Ra; type: toxicity, cell-based; details: human, read-out: Selectivity Index
[7] = Selectivity index, ratio of GI50 for cytotoxicity against human HeLa cells to MIC for antitubercular activity against dormant stage of Mycobacterium tuberculosis H37Ra; type: toxicity, cell-based; details: read-out: Selectivity Index
[8] = system: MCF7; assay: Cytotoxicity against human MCF7 cells assessed as cell growth inhibition; type: functional
[9] = Cytotoxicity against HUVEC cells assessed as cell growth inhibition; type: toxicity, cell-based; details: human
[10] = Selectivity index, ratio of GI50 for cytotoxicity against human MCF7 cells to MIC for antitubercular activity against active stage of Mycobacterium tuberculosis H37Ra; type: toxicity, cell-based; details: read-out: Selectivity Index
[11] = system: Mycobacterium tuberculosis; assay: Antitubercular activity against dormant stage of Mycobacterium tuberculosis H37Ra; type: functional
[12] = system: Mycobacterium tuberculosis; assay: Antitubercular activity against active stage of Mycobacterium tuberculosis H37Ra; type: functional
[13] = Selectivity index, ratio of GI50 for cytotoxicity against human MCF7 cells to MIC for antitubercular activity against dormant stage of Mycobacterium tuberculosis H37Ra; type: toxicity, cell-based; details: read-out: Selectivity Index
[14] = system: HeLa; assay: Cytotoxicity against human HeLa cells assessed as cell growth inhibition; type: functional
[15] = system: Mycobacterium tuberculosis; assay: Antimycobacterial activity against Mycobacterium tuberculosis H37Rv; type: functional

**Q.** Which Activity [1] does the source give for Cc1cc(-c2cn(C[C@@]3(C)Cn4cc([N+](=O)[O-])nc4O3)nn2)ccc1F here?
**A.** > 40 µg/mL

**Q.** And the MIC [2]?
**A.** 4 µg/mL (≈ 11.2 µM)

**Q.** What about the MIC [3] of the same molecule?
**A.** 2 µg/mL (≈ 5.58 µM)

**Q.** With Cc1ccc(OCc2cn(C[C@@]3(C)Cn4cc([N+](=O)[O-])nc4O3)nn2)cc1 as the molecule, how does the Activity [1] read?
**A.** > 40 µg/mL

**Q.** What about the MIC [2] of the same molecule?
**A.** 2 µg/mL (≈ 5.4 µM)

**Q.** And the MIC [3]?
**A.** 1 µg/mL (≈ 2.7 µM)

**Q.** For CCc1ccc(OCc2cn(C[C@@]3(C)Cn4cc([N+](=O)[O-])nc4O3)nn2)cc1, which Activity [1] is on record?
**A.** > 40 µg/mL

**Q.** And the MIC [2]?
**A.** 2 µg/mL (≈ 5.2 µM)

**Q.** What about the MIC [3] of the same molecule?
**A.** 2 µg/mL (≈ 5.2 µM)

**Q.** With O=C(OCc1ccccc1)c1ccsc1NC(=O)[C@@H]1CCCN1 as the molecule, how does the selectivity ratio [4] read?
**A.** > 66.5

**Q.** What about the selectivity ratio [5] of the same molecule?
**A.** > 11.8

**Q.** What about the selectivity ratio [6] of the same molecule?
**A.** > 11.8

**Q.** And the selectivity ratio [7]?
**A.** > 66.5

**Q.** What about the GI50 [8] of the same molecule?
**A.** > 250 µg/mL

**Q.** And the GI50 [9]?
**A.** > 250 µg/mL

**Q.** What about the selectivity ratio [10] of the same molecule?
**A.** > 11.8

**Q.** What about the MIC [11] of the same molecule?
**A.** 3.76 µg/mL (≈ 11.4 µM)

**Q.** What about the MIC [12] of the same molecule?
**A.** 21.1 µg/mL (≈ 63.9 µM)

**Q.** What about the selectivity ratio [13] of the same molecule?
**A.** > 66.5

**Q.** And the GI50 [14]?
**A.** > 250 µg/mL

**Q.** For C[C@]1(Cn2cc(CN3CCOCC3)nn2)Cn2cc([N+](=O)[O-])nc2O1, which Activity [1] is on record?
**A.** > 40 µg/mL

**Q.** What about the MIC [2] of the same molecule?
**A.** 1 µg/mL (≈ 2.86 µM)

**Q.** What about the MIC [3] of the same molecule?
**A.** 2 µg/mL (≈ 5.72 µM)

**Q.** What does the source list for Cc1cccc(OCc2cn(C[C@@]3(C)Cn4cc([N+](=O)[O-])nc4O3)nn2)c1?
**A.** Activity [1]: > 40 µg/mL; MIC [2]: 0.5 µg/mL (≈ 1.35 µM); MIC [3]: 0.5 µg/mL (≈ 1.35 µM)

**Q.** Which results are given for Cc1ccc(OCCc2cn(C[C@@]3(C)Cn4cc([N+](=O)[O-])nc4O3)nn2)cc1?
**A.** Activity [1]: > 40 µg/mL; MIC [15]: 0.25 µg/mL (≈ 0.65 µM); MIC [3]: 0.25 µg/mL (≈ 0.65 µM)

**Q.** With Cc1ccc(SCc2cn(C[C@@]3(C)Cn4cc([N+](=O)[O-])nc4O3)nn2)cc1 as the molecule, how does the Activity [1] read?
**A.** > 40 µg/mL

**Q.** What about the MIC [2] of the same molecule?
**A.** 1 µg/mL (≈ 2.59 µM)

**Q.** What about the MIC [3] of the same molecule?
**A.** 2 µg/mL (≈ 5.18 µM)

**Q.** Which Activity [1] does the source give for C[C@]1(Cn2cc(-c3ccc(C(F)(F)F)cc3)nn2)Cn2cc([N+](=O)[O-])nc2O1 here?
**A.** > 40 µg/mL

**Q.** What about the MIC [2] of the same molecule?
**A.** 8 µg/mL (≈ 20.3 µM)

**Q.** And the MIC [3]?
**A.** 2 µg/mL (≈ 5.07 µM)

**Q.** Which Activity [1] does the source give for C[C@]1(Cn2cc(-c3ccc(F)cc3)nn2)Cn2cc([N+](=O)[O-])nc2O1 here?
**A.** > 40 µg/mL

**Q.** And the MIC [2]?
**A.** 2 µg/mL (≈ 5.81 µM)

**Q.** What about the MIC [3] of the same molecule?
**A.** 1 µg/mL (≈ 2.9 µM)

**Q.** With CCOC(=O)c1ccsc1NC(=O)[C@@H]1CCCN1 as the molecule, how does the selectivity ratio [4] read?
**A.** > 32.8

**Q.** What about the selectivity ratio [5] of the same molecule?
**A.** 3.88

**Q.** What about the selectivity ratio [6] of the same molecule?
**A.** > 27.5

**Q.** And the selectivity ratio [7]?
**A.** 4.63

**Q.** And the GI50 [8]?
**A.** > 250 µg/mL

**Q.** What about the GI50 [9] of the same molecule?
**A.** > 250 µg/mL

**Q.** What about the selectivity ratio [10] of the same molecule?
**A.** > 27.5

**Q.** And the MIC [11]?
**A.** 7.62 µg/mL (≈ 28.4 µM)

**Q.** What about the MIC [12] of the same molecule?
**A.** 9.08 µg/mL (≈ 33.8 µM)

**Q.** What about the selectivity ratio [13] of the same molecule?
**A.** > 32.8

**Q.** And the GI50 [14]?
**A.** 35.3 µg/mL (≈ 132 µM)

**Q.** With C=CCOC(=O)c1ccsc1NC(=O)[C@@H]1CCCN1 as the molecule, how does the selectivity ratio [4] read?
**A.** 73.3

**Q.** And the selectivity ratio [5]?
**A.** 4.08

**Q.** What about the selectivity ratio [6] of the same molecule?
**A.** 6.41

**Q.** What about the selectivity ratio [7] of the same molecule?
**A.** 46.7

**Q.** And the GI50 [8]?
**A.** 96.6 µg/mL (≈ 345 µM)

**Q.** What about the GI50 [9] of the same molecule?
**A.** 149 µg/mL (≈ 531 µM)

**Q.** And the selectivity ratio [10]?
**A.** 4.16

**Q.** What about the MIC [11] of the same molecule?
**A.** 2.03 µg/mL (≈ 7.24 µM)

**Q.** And the MIC [12]?
**A.** 23.2 µg/mL (≈ 82.8 µM)

**Q.** What about the selectivity ratio [13] of the same molecule?
**A.** 47.6

**Q.** What about the GI50 [14] of the same molecule?
**A.** 94.9 µg/mL (≈ 338 µM)

**Q.** For C[C@]1(Cn2cc(COc3cccc(F)c3)nn2)Cn2cc([N+](=O)[O-])nc2O1, which Activity [1] is on record?
**A.** > 40 µg/mL

**Q.** What about the MIC [2] of the same molecule?
**A.** 2 µg/mL (≈ 5.34 µM)

**Q.** What about the MIC [3] of the same molecule?
**A.** 1 µg/mL (≈ 2.67 µM)

**Q.** What does the source list for C[C@]1(Cn2cc(-c3ccc(F)cc3F)nn2)Cn2cc([N+](=O)[O-])nc2O1?
**A.** Activity [1]: > 40 µg/mL; MIC [2]: 8 µg/mL (≈ 22.1 µM); MIC [3]: 1 µg/mL (≈ 2.76 µM)

**Q.** Which selectivity ratio [4] does the source give for O=C(Oc1ccccc1)c1ccsc1NC(=O)[C@@H]1CCCN1 here?
**A.** > 10.6

**Q.** And the selectivity ratio [5]?
**A.** > 10.1

**Q.** And the selectivity ratio [6]?
**A.** > 10.1

**Q.** What about the selectivity ratio [7] of the same molecule?
**A.** > 10.6

**Q.** What about the GI50 [8] of the same molecule?
**A.** > 250 µg/mL

**Q.** And the GI50 [9]?
**A.** > 250 µg/mL

**Q.** What about the selectivity ratio [10] of the same molecule?
**A.** > 10.1

**Q.** What about the MIC [11] of the same molecule?
**A.** 23.7 µg/mL (≈ 74.8 µM)

**Q.** And the MIC [12]?
**A.** 24.7 µg/mL (≈ 78.2 µM)

**Q.** What about the selectivity ratio [13] of the same molecule?
**A.** > 10.6

**Q.** And the GI50 [14]?
**A.** > 250 µg/mL

**Q.** For C[C@]1(Cn2cc(-c3ccc(OC(F)(F)F)cc3)nn2)Cn2cc([N+](=O)[O-])nc2O1, which Activity [1] is on record?
**A.** > 40 µg/mL

**Q.** And the MIC [2]?
**A.** 4 µg/mL (≈ 9.75 µM)

**Q.** And the MIC [3]?
**A.** 2 µg/mL (≈ 4.87 µM)
